The compounds below were run against T1, human GPR119 (Homo sapiens, UniProt Q8TDV5) (assay: Cyclic AMP assay in CHO-hGPR119 cells (HTRF)). Details: increase in intracellular cAMP; GPR119-transfected CHO cells.
T1 construct: expressed in transfected cells; host or cells: Flp-In-CHO cells (Invitrogen, Cat.# R758-07), stably transfected with hGPR119 in pcDNA5/FRT plus pOG44
T1 sequence (Q8TDV5 1-335): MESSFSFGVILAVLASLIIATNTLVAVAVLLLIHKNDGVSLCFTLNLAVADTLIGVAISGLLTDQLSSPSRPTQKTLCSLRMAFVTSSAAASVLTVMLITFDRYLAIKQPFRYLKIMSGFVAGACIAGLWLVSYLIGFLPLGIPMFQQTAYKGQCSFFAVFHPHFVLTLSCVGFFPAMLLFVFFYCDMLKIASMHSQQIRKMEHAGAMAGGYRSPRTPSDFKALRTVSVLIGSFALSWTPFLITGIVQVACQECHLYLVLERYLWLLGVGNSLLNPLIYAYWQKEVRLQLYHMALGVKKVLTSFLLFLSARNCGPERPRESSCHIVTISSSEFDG
Type: cell-based
Experimental: Flp-In-CHO cells (Invitrogen, Cat.# R758-07) are maintained in Ham's F12 medium supplemented with 10% fetal bovine serum, 1% antibiotic mixture and 2 mM L-glutamine. The cells are transfected with a DNA mixture containing human GPR119 (hGPR119) or mouse GPR119 (mGPR119) in the pcDNA5/FRT vector (Invitrogen) and the pOG44 vector (Invitrogen) in a 1:9 ratio using Fugene6 (Roche), according to the manufacturer's instructions. After 48 hours, the medium is changed to medium supplemented with 400 μg/mL hygromycin B to initiate the selection of stably transfected cells. The resultant cell lines are designated CHO-hGPR119 and CHO-mGPR119 respectively.
To test the activity of compounds of the invention on human GPR119, CHO-hGPR119 cells are harvested and resuspended at 300,000 cells/mL in assay media (Ham's F12 medium plus 3% lipid-depleted fetal bovine serum, 1 mM 3-isobutyl-1-methyl-xanthine (IBMX)). Cells (5 μl) are placed in each well of a white 1536-well plate. A compound of the invention (50 nL) diluted in 100% dimethyl sulfoxide (DMSO) is added to each well and the plates are incubated at 37° C. for 30 minutes. cAMP concentrations are then measured using the cAMP dynamic 2 kit (Cisbio Bioassays) according to the manufacturer's instructions. 2.5 μL of diluted cAMP-XL665 is added to each well, followed by 2.5 μL diluted anti-cAMP-Cryptate. The plate is covered and incubated for one hour at room temperature, then read on an Envision plate reader (Perkin Elmer) using the HTRF method with excitation at 337 nm, and emissions measured at 620 nm and […].

SMILES | EC50 [nM]
CCc1cnc(N2CCC(CCCc3nc(N4CCN(S(C)(=O)=O)CC4)no3)CC2)nc1 [Example H3, 5-(3-(1-(5-Ethylpyrimidin-2-yl)piperidin-4-yl)propyl)-3-(4-(methylsulfonyl)piperazin-1-yl)-1,2,4-oxadiazole] | < 200
CC(C)(C)OC(=O)N1CCC(COc2cnc(N3CCCN(S(C)(=O)=O)CC3)cn2)CC1 [Example G1, tert-Butyl 4-((5-(4-(methylsulfonyl)-1,4-diazepan-1-yl)pyrazin-2-yloxy)methyl)piperidine-1-carboxylate] | > 800
CCc1cnc(N2CCC(Oc3ccc4c5c(oc4c3)CN(S(C)(=O)=O)CC5)CC2)nc1 [Example V5, 7-(1-(5-Ethylpyrimidin-2-yl)piperidin-4-yloxy)-2-(methylsulfonyl)-1,2,3,4-tetrahydrobenzofuro[2,3-c]pyridine] | < 200
CC(C)OC(=O)N1CCC(CCc2ccc(N3CCN(S(C)(=O)=O)CC3)nc2)CC1 [Example D2, Isopropyl 4-(2-(6-(4-(methylsulfonyl)piperazin-1-yl)pyridin-3-yl)ethyl)piperidine-1-carboxylate] | 200 to 800
CC1(OC(=O)N2CCC(COc3cnc(N4CCN(S(C)(=O)=O)CC4)cn3)CC2)CC1 [Example E3, 1-Methylcyclopropyl 4-((5-(4-(methylsulfonyl)piperazin-1-yl)pyrazin-2-yloxy)methyl)piperidine-1-carboxylate] | < 200
CC1(OC(=O)N2CCC(COc3cnc(N4CCC(S(C)(=O)=O)CC4)cn3)CC2)CC1 [Example G4, 1-Methylcyclopropyl 4-((5-(4-(methylsulfonyl)piperidin-1-yl)pyrazin-2-yloxy)methyl)piperidine-1-carboxylate] | < 200
CC1(OC(=O)N2CCC(COc3cnc(N4CCN(S(=O)(=O)[C@@H]5CCNC5)CC4=O)cn3)CC2)CC1 [Example O41] | < 200
CS(=O)(=O)N1CCC(c2ccc(OCC3CCN(c4ccc(Cl)cn4)CC3)cc2)CC1 [Example J22] | < 200
CC(C)c1nc(N2CCC(COc3ccc(C4=CCN(S(C)(=O)=O)CC4)cc3)CC2)no1 [Example J7] | < 200
CC1(OC(=O)N2CCC(COc3cnc(N4CC(NS(C)(=O)=O)C4)cn3)CC2)CC1 [Example U5, 1-Methylcyclopropyl 4-((5-(3-(methylsulfonamido)azetidin-1-yl)pyrazin-2-yloxy)methyl)piperidine-1-carboxylate] | < 200
CC(C)OC(=O)N1CCC(COc2ccc(N3CCN(S(C)(=O)=O)CC3)nn2)CC1 [Example C2, Isopropyl 4-((6-(4-(methylsulfonyl)piperazin-1-yl)pyridazin-3-yloxy)methyl)piperidine-1-carboxylate] | > 800
CC1(OC(=O)N2CCC(COc3cnc(N4CCN(S(=O)(=O)CCCN5CCC5)CC4=O)cn3)CC2)CC1 [Example O9] | < 200
CC(C)c1noc(N2CCC(CCc3ncc(N4CCN(S(C)(=O)=O)CC4)s3)CC2)n1 [Example I1, 3-Isopropyl-5-(4-(2-(5-(4-(methylsulfonyl)piperazin-1-yl)thiazol-2-yl)ethyl)piperidin-1-yl)-1,2,4-oxadiazole] | < 200
CC(C)c1noc(N2CCC(COc3ccc(N4CCN(S(C)(=O)=O)CC4)cn3)CC2)n1 [Example E9, 3-Isopropyl-5-(4-((5-(4-(methylsulfonyl)piperazin-1-yl)pyridin-2-yloxy)methyl)piperidin-1-yl)-1,2,4-oxadiazole] | 200 to 800
CC(C)OC(=O)N1CCC(CCCOc2ccc(N3CCN(S(C)(=O)=O)CC3)cc2)CC1 [Example A3] | > 800
CS(=O)(=O)N1CCC(C(=O)O)(c2ccc(OCC3CCN(c4ncc(F)cn4)CC3)cc2)CC1 [Example T1, 4-(4-((1-(5-fluoropyrimidin-2-yl)piperidin-4-yl)methoxy)phenyl)-1-(methylsulfonyl)piperidine-4-carboxylic acid] | 200 to 800
